Laboratory results published in patent publication US6043219A, “Broad spectrum chemotherapeutic peptide” (Kansas State University Research Foundation, priority 1997, dated 2000).
“Also recorded” adds a separate entry of the source.

Columns and labels:
[1] = Stability of BacR1: residual activity by bactericidal assay (plate method) after treatments; assay type: physicochemical
Description: 7A, p. 315-422. […] Appl. Microbiol. 21:943].
The stability of BacR1 was assessed by determining the activity of BacR1 by bactericidal assay (plate method) after exposure to various temperatures, environmental conditions, and enzymes (Table 2). Solutions of finally purified BacR1 at a concentration of 640 AU/ml were used in these stability experiments. BacR1 samples were held at various temperatures for 15 min, were held at pHs ranging from 3 to 11 at room temperature for 1 h, were incubated in 6M urea at room temperature for 1 h, or were incubated with 1 mg/ml of enzyme at room temperature for 1 h.

[2] = Preparative isoelectric focusing (Rotofor); assay type: physicochemical; details: ammonium sulfate-precipitated culture supernatant, ampholytes pH 3-10, fractions 15 through 17
Description: Isoelectric focusing of ammonium sulfate-precipitated culture supernatants of S. aureus UT0007 was carried out on a Rotofor isoelectric focusing cell (Bio-Rad, Richmond, Calif.) in order to define certain biophysical characteristics of BacR1. Concentrated culture supernatants were dialyzed overnight in 3,500 molecular-weight-cutoff dialysis tubing (SpectraPor, Los Angeles, Calif.) against 4 L distilled water at 4° C. The dialyzed sample was centrifuged at 9,000× g for 10 min at 4° C. to remove insoluble material, and the supernatant was diluted to a total volume of 55 ml with distilled water. Ampholytes (pH 3-10) (Fisher, St. Louis, Mo.) were added to a final concentration of 1% and the sample was loaded into the Rotofor cell for focusing at 12 W constant power at 4° C. The initial conditions were approximately 600 V and 35 mA; upon equilibrium the values were approximately 1200 V and 15 mA. Twenty individual fractions were harvested and the total protein, pH, and BacR1 activity for each fraction was determined.

[3] = tested on: C. renale; test: Effect of BacR1 on viability of C. renale (A550 and viable cell counts over time); assay type: cell-based, Corynebacterium renale
Description: FIG. 9 includes a pair of graphs illustrating the effect of BacR1 on the viability C. renale; the A550 of a culture of control cells (-.circle-solid.-) and a culture of cells incubated with BacR1 at a concentration of 100 AU/ml (-.box-solid.-) was measured at respective times;
FIG. 10 includes a pair of graphs illustrating the effect of BacR1 on the viability C. renale; viable cell counts for a culture of control cells (-.circle-solid.-) and a culture of cells incubated with BacR1 at a concentration of 100 AU/ml (-.box-solid.-) were determined at respective times.
BacR1 kills C. renale in a dose-dependent fashion, with a MIC50 of approximately 6 AU/ml (FIG. 8). Furthermore, the killing is rapid in the absence of cell lysis as evidenced in FIGS. 9 and 10. No viable cells were detected after 120 min of exposure to BacR1. […] Such recovery would be observed with a bacteriostatic agent.

[4] = tested on: C. renale; test: SDS-PAGE bioassay (gel overlaid with top agar containing C. renale); assay type: cell-based, Corynebacterium renale; details: finally purified BacR1
Text: Purified preparations of BacR1 were subjected to electrophoretic analysis by SDS-PAGE. After electrophoresis, gels were either silver stained (Blum et al. 1987. Electrophoresis 8:93-99) or bioassayed using a slight modification of the method of Bhunia et al. (1987. J. Indust. Microbiol. 2:319-322). Briefly, each protein sample was electrophoresed in a 10-20% SDS-PAGE gradient gel (Bio-Rad, Richmond, Calif.) as previously described (Laemmli et al. 1970. Nature. 227:680-685). After electrophoresis, SDS was removed by soaking the gel in 20% isopropanol-10% acetic acid in water for 2 h, followed by rinsing in distilled water for 4 h. The gel was then placed on a BHT-80 agar plate and overlaid with BHT-80 top agar (0.7% agar) containing C. renale. After incubation at 37° C. overnight, the plate/gel combination was examined for zones of growth inhibition.

[5] = tested on: Bordetella brochoseptica; test: Inhibitory spectrum, bactericidal assay (plate method); assay type: cell-based; details: B. bronchoseptica
[6] = tested on: Bordetella pertussis; test: as above; assay type: cell-based; details: Bordatella pertussis
[7] = tested on: Corynebacterium renale; test: as above; assay type: cell-based; details: C. renale compared with other sensitive organisms
[8] = tested on: Haemophilus parasuis; test: as above; assay type: cell-based; details: Hemophilus parasuis
[9] = tested on: Moraxella bovis; test: as above; assay type: cell-based
[10] = tested on: Pasteurella multocida; test: as above; assay type: cell-based
[11] = tested on: Streptococcus suis; test: as above; assay type: cell-based
[12] = tested on: S. aureus; test: Inhibitory spectrum, S. aureus; assay type: cell-based, Staphylococcus aureus
[13] = tested on: methicillin-resistant S. aureus (MRSA) strains; test: Additional analyses of the inhibitory spectrum; assay type: cell-based, Staphylococcus aureus; details: ten MRSA strains tested
[14] = tested on: vancomycin-resistant strains of Enterococcus faecalis and E. faecium; test: Additional analyses of the inhibitory spectrum; assay type: cell-based; details: remainder varying degrees of resistance
[15] = tested on: C. renale; details: finally purified BacR1, 37° C., 5 h, A550
[16] = crude preparation, Rogolsky et al. paper; cited from earlier work
[17] = tested on: Corynebacterium renale ATCC 19412; test: Bactericidal assay of BacR1 (plate method)

For “BacR1: 26-mer proteinaceous bacteriocin of approximately 3.4 kilodaltons produced by S. aureus UT0007; peptide sequence SEQ ID No. 3 (LGGAATGVIGYISNQTCPTTACTRAC)”, which “% Residual Activity” value ([1]; 4° C., 15 min, 640 AU/ml) is on record?
The value was 100%.

What about the “% Residual Activity” value ([1]; 25° C., 15 min, 640 AU/ml) of the same substance?
The value was 100%.

And the “% Residual Activity” value ([1]; 37° C., 15 min, 640 AU/ml)?
Its value is 100%.

And the “% Residual Activity” value ([1]; -20° C., 15 min, finally purified BacR1 640 AU/ml)?
Its value is 100%.

And the “% Residual Activity” value ([1]; pH 3 to 11, room temperature, 1 h, 640 AU/ml)?
Its value is 100%.

What about the “apparent average pI” value [2] of the same substance?
Its value is 7.7.

And the “exposure time after which no viable cells were detected” value ([3]; BacR1 100 AU/ml)?
The value was 120 min.

And the “mode of action (bactericidal vs bacteriostatic)” value ([3]; prolonged incubation, cells do not recover)?
Its value is “bactericidal”.

And the “bactericidal activity in SDS-PAGE gel overlay” value [4]?
The value was “possessed BacR1 activity”.

And the “sensitivity to BacR1 (in words)” value [5]?
The value was “killed; also recorded: sensitive”.

And the “sensitivity to BacR1 (in words)” value [6]?
The value was “sensitive”.

What about the relative susceptibility [7] of the same substance?
Its relative susceptibility is “equally (and most) sensitive”.

What about the “sensitivity to BacR1 (in words)” value [8] of the same substance?
Its value is “sensitive”.

And the relative susceptibility [9]?
The relative susceptibility was “equally (and most) sensitive”.

And the “sensitivity to BacR1 (in words)” value ([9]; Moraxella bovis)?
Its value is “especially sensitive”.

And the “sensitivity to BacR1 (in words)” value [10]?
The value was “killed”.

What about the “sensitivity to BacR1 (in words)” value [11] of the same substance?
Its value is “killed”.

What about the “sensitivity to BacR1 (in words)” value ([12]; S. aureus) of the same substance?
The value was “killed”.

What about the relative susceptibility ([12]; S. aureus compared with other sensitive organisms) of the same substance?
Its relative susceptibility is “susceptible, but required higher doses”.

What about the “sensitivity to BacR1 (in words)” value [13] of the same substance?
The value was “very sensitive”.

What about the “share of tested strains sensitive to BacR1” value [14] of the same substance?
The value was “About 40%”.

And the “MIC50 (concentration that caused a 50% inhibition of growth)” value [15]?
The value was “approximately 6 AU/ml”.

What about the maximum specific activity [16] of the same substance?
Its maximum specific activity is 46 AU/mg.

What about the “Specific Activity” value ([17]; purification stage: Ammonium Sulfate) of the same substance?
Its value is 1259 AU/mg.

And the “Specific Activity” value ([17]; purification stage: C4 Reverse-Phase (1st cycle))?
Its value is 16,642 AU/mg.

And the “Specific Activity” value ([17]; purification stage: C4 Reverse-Phase (2nd cycle), finally purified)?
The value was 37,450 AU/mg.

And the “Specific Activity” value ([17]; purification stage: Cation Exchange)?
The value was 6963 AU/mg.

What about the “Specific Activity” value ([17]; purification stage: Supernatant (1 L)) of the same substance?
The value was 152 AU/mg.
